Experimental data: patent US6346531B1, “G-CSF mimetics” (SmithKline Beecham Corporation, priority 1998, dated 2002)

What was measured:
human CFU-g = test: CFU-g assay (colony assay), human; format: cell-based; details: potency as G-CSF mimetic
Method: (§1) In determining potency as G-CSF mimetics, the following assay is employed: CFU-g Assay
(§2) The compounds of present invention are tested for potency as G-CSF mimetics in a CFU-g assay, an example of which is described in King AG, Talmadge J., Badger AM, Pelus LM. Regulation of colony stimulating activity production from bone marrow stromal cells by the hematoregulatory peptide, HP-5. Exp. Hematol. 20:223-228, 1992.

mouse CFU-g = test: CFU-g assay (colony assay), mouse; format: cell-based; details: potency as G-CSF mimetic
Method: as §1, §2

Structure (SMILES): O=c1n2c(nc3n1[C@]1(c4ccccn4)n4c(nc5nc6ccccc6n5c4=O)N[C@]1(c1ccccn1)N3)nc1ccccc12 [Compound A, 7a, 17a-bis(2-pyridyl)-16,19-dioxo-5,7a, 10,16,17a, 19-hexahydro-benzimidazo[2′,1′:4,5][1,3,5]triazino[1,2-a]benzimidazo[2″,1″:4′,5′][1,3,5]triazino[1′,2′:1,2]imidazo[4,5-d]imidazole]
- human CFU-g, colony assay/% Gmax @ 3 uM (human CFU-g): 41 % Gmax
- mouse CFU-g, colony assay/% Gmax @ 3 uM (mouse CFU-g): 43 % Gmax
